Source: patent US5637600A, “Phenylpyrrole derivatives and their use as dopamine D3 antagonists” (SmithKline Beecham p.l.c., priority 1994, dated 1997)
Structures can show the parent of a compound that is named as a salt.

These molecules were tested against T1, human D3 dopamine receptors (Homo sapiens, UniProt P35462) (assay: [125I] iodosulpride displacement binding to cloned human D3 dopamine receptors expressed in CHO cells). Conditions: displacement of 0.1 nM [125I] iodosulpride, CHO cell membranes, 30 min at 37° C.; read-out: IC50 values at the human D3 receptor.
T1 construct: expressed in transfected cells; host or cells: CHO cells
Procedure: The inhibition constants (Ki) of test compounds for displacement of [^125 I] iodosulpride binding to human D3 dopamine receptors expressed in CHO cells were determined as follows. […] Cultures were grown as monolayers or in suspension in standard cell culture media. Cells were recovered by scraping (from monolayers) or by centrifugation (from suspension cultures), and were washed two or three times by suspension in phosphate buffered saline followed by collection by centrifugation. Cell pellets were stored frozen at -40° C. Crude cell membranes were prepared by homogenisation followed by high-speed centrifugation, and characterisation of cloned receptors achieved by radioligand binding.
Cell pellets were gently thawed at room temperature, and resuspended in about 20 volumes of ice-cold 50 mM Tris salts (pH 7.4@37° C.), 20 mM EDTA, 0.2M sucrose. The suspension was homogenised using an Ultra-Turrax at full speed for 15 sec. The homogenate was centrifuged at 18,000 r.p.m for 20 min at 4° C. in a SorvalI RC5C centrifuge. The membrane pellet was resuspended in ice-cold 50 mM Tris salts (pH 7.4@37° C.), using an Ultra-Turrax, and recentrifuged at 18,000 r.p.m for 15 min at 4° C. in a Sorvall RC5C. The membranes were washed two more times with ice-cold 50 mM Tris salts (pH 7.4@37° C.). The final pellet was resuspended in 50 mM Tris salts (pH 7.4@37° C.), and the protein content determined using bovine serum albumin as a standard (Bradford, M. M. (1976) Anal. Biochem. 72, 248-254).
Crude cell membranes were incubated with 0.1 nM [^125 I] iodosulpride (~2000 Ci/mmol; Amersham, U. K.), and the test compound in a buffer containing 50 mM Tris salts (pH 7.4@37° C.), 120 mM NaCl, 5 mM KCl, 2 mM CaCl2, 1 mM MgCl2, 0.1% (w/v) bovine serum albumin, in a total volume of 1 ml for 30 min at 37° C. […] The radioactivity on the filters was measured using a Cobra gamma counter (Canberra Packard). […]
Competition curves were analysed simultaneously whenever possible using non-linear least-squares fitting procedures, capable of fitting one, two or three site models.

T1 sequence (P35462 whole entry): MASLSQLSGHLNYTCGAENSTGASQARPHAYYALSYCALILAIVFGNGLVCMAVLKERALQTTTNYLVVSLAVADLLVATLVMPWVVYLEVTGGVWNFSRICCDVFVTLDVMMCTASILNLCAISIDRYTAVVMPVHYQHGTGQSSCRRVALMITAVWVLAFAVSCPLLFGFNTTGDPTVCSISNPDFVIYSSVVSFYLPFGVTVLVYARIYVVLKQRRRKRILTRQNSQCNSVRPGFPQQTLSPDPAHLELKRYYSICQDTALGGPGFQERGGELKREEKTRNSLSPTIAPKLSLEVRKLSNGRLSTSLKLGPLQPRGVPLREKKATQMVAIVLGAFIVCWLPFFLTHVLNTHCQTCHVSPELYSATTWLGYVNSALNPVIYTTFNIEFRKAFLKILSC

IC50, 5 to 20 nM:
CCN1CCCC1c1ccc(-c2cc(S(=O)(=O)Oc3ccccc3)ccc2OC)[nH]1 (racemic) [Example 2, 2-(2-(R,S)-(1-Ethylpyrrolidinyl))-5-(2-methoxy-5-phenoxysulphonylphenyl)-1H-pyrrole hydrochloride.]
COc1ccc(S(=O)(=O)Oc2ccccc2)cc1-c1ccc(CN2CCCCCC2c2ccccc2)[nH]1 (stereo not drawn) [Example 1, 2-(2-Methoxy-5-Phenoxysulfonylphenyl)-5-(1-[2-phenylazacycloheptyl]methyl)-1H-pyrrole, hydrochloride]
CCN(Cc1ccccc1)Cc1ccc(-c2cc(S(=O)(=O)Oc3ccccc3)ccc2OC)[nH]1 [Example 3, 2-(N-Benzyl-N-ethyl)aminomethyl-5-(2-methoxy-5-phenoxysulphonylphenyl)-1H-pyrrole hydrochloride]
